Source: patent publication US20260078118A1, “COMBINED PRODUCT, SALT AND USE THEREOF” (SHANGHAI HENLIUS BIOTECH, INC., priority 2023, published 2026)
Where a name gives a salt, the structure may show the parent alone.

Legend:
[1] = system: HepG2 cells; assay: Protection of hepatocytes from deoxycholic acid (DCA)-induced cell damage, CCK8 viability; type: cell-based; conditions: then 1 mM DCA 4 h; for cell viability: compound N 50 μM for 24 h, vs. DCA-treated group
Protocol: (§1) First, 2.5×10^4 HepG2 cells were seeded in a 96-well flat-bottom plate with an MEM medium containing 10% fetal bovine serum. The cells were cultured overnight in an incubator at 37° C. with 5% CO2 for adhesion. Subsequently, various compounds at corresponding concentrations (compound Y: 100 μM; compound B: 100 μM; compound N: 50 μM) were incubated with the HepG2 cells in the incubator at 37° C. with 5% CO2 for 24 h. All groups, except for the blank control group, were treated with 1 mM deoxycholic acid (DCA, a secondary bile acid that can directly induce hepatocyte damage) for 4 h. All groups were supplemented with 10 μL of CCK8 reagent and incubated under the incubator conditions for 1 h. The absorbance was measured at a wavelength of 450 nm using a microplate reader, which indirectly reflected the number of viable cells. All data were calculated and presented as percentages relative to the absorbance measured in the blank control group not treated with deoxycholic acid.
as §1, with “Y: 50” for “Y: 100 μM; compound B: 100”, “N: 50 µM; compound combination Y+N: 50 μM+50 μM (molar ratio: 1:1); YN salt:” for “N:”, “h. Then, the” for “h. The”
as §1, with “µM;” for “μM; compound B: 100 μM;”, “µM; compound combination Y+N: 100 μM+50 μM (molar ratio: 2:1))” for “μM)”
First, 2.5×10^4 HepG2 cells were seeded in a 96-well flat-bottom plate with an MEM medium containing 10% fetal bovine serum. The cells were cultured overnight in an incubator at 37° C. with 5% CO2 for adhesion. […] The absorbance was measured at a wavelength of 450 nm using a microplate reader, which indirectly reflected the number of viable cells. […]

[2] = system: mice subjected to intragastric administration of α-naphthylisothiocyanate (ANIT); assay: ANIT mouse model, serological indicators; type: in vivo, C57BL/6 mice; conditions: vs. ANIT model group
Description: In order to verify the technical effects observed in the in vitro cell models, this experiment further examined the effects of compound Y and compound B on serological indicators in a mouse model subjected to intragastric administration of α-naphthylisothiocyanate (ANIT). Fifty-four female C57BL/6 mice aged 6-8 weeks were purchased from Shanghai Lingchang Biotechnology Co., Ltd. After one week of acclimatization, the mice were divided into 6 groups according to body weight, and this time point was designated as day −3. The test compound in each group was intragastrically administered starting from day −3. After three consecutive days of administration, modeling was performed by intragastric administration of ANIT at a dose of 50 mg/kg, and this time point was designated as day 0. During modeling, the healthy group (control) received a single oral dose of pure olive oil. Throughout the entire experimental period, both the healthy group (control) and the model group (ANIT) were given corresponding doses of vehicle (sodium carboxymethylcellulose) according to body weight. The mice were observed daily for health status and body weight changes. The experimental endpoint was day 2; prior to euthanasia, the mice were fasted for 6 h, and cardiac blood collection and liver sample acquisition were performed under anesthesia. The primary indicators were serological changes including AST, ALT, and ALP.
In order to verify the technical effects observed in the DDC model, this experiment further examined the effects of various compound combinations on serological indicators in a mouse model subjected to intragastric administration of α-naphthylisothiocyanate (ANIT). Fifty-six female C57BL/6 mice aged 6-8 weeks were purchased from Shanghai Lingchang Biotechnology Co., Ltd. After one week of acclimatization, the mice were divided into 7 groups according to body weight, and this time point was designated as day −3. The compound in each group was intragastrically administered starting from day −3. After three consecutive days of administration, modeling was performed by intragastric administration of ANIT at a dose of 50 mg/kg, and this time point was designated as day 0. The normal control group received a single oral dose of pure olive oil. Throughout the entire experimental period, both the healthy group (control) and the model group (ANIT) were given corresponding doses of vehicle (sodium carboxymethylcellulose) according to body weight. The mice were observed daily for health status and body weight changes. The experimental endpoint was day 2; prior to euthanasia, the mice were fasted for 6 h, and cardiac blood collection and liver sample acquisition were performed under anesthesia. The primary indicators were serological changes including AST, ALT, and ALP.

[3] = system: mice fed with feed containing 0.1% DDC (DDC model); assay: DDC model, serological indicators and liver pathology; type: in vivo, C57BL/6 mice; conditions: Example 12, FIG. 17; U 100 mg/kg, combinations 100+100 mg/kg; vs. DDC model group
Description: Seventy-one male C57BL/6 mice aged 10 weeks were purchased from Shanghai Lingchang Biotechnology Co., Ltd. […] The compound in each group was intragastrically administered starting from day 0. Throughout the entire experimental period, both the healthy group (control) and the model group (DDC) were given corresponding doses of vehicle (sodium carboxymethylcellulose) according to body weight. The mice were observed daily for health status and body weight changes. The experimental endpoint was day 20. Prior to euthanasia, the mice were fasted for 6 h, and cardiac blood collection and liver sample acquisition were performed under anesthesia. The primary indicators were serological changes including AST, ALT, and ALP; pathological analysis was performed by HE staining. The specific grouping and the administration dose for each group are shown in the table below: Fifty-six male C57BL/6 mice aged 10 weeks were purchased from Shanghai Lingchang Biotechnology Co., Ltd. […] The compound in each group was intragastrically administered starting from day 0. Throughout the entire experimental period, both the healthy group (control) and the model group (DDC) were given corresponding doses of vehicle (sodium carboxymethylcellulose) according to body weight. The mice were observed daily for health status and body weight changes. The experimental endpoint was day 20. […]

[4] = system: CD4-positive T cells; assay: Proliferation of CD4-positive T cells from Anti-CD3/CD28-stimulated PBMCs (CellTrace, flow cytometry); type: cell-based, human; conditions: FIG. 5; compound Y 200 μM, Y+N 200 μM+100 μM, 72 h; vs. DMSO control
Protocol: (§2) First, a certain amount of human peripheral blood mononuclear cells (PBMCs) were incubated with 5 μM CellTrace cell proliferation assay reagent in an incubator at 37° C. with 5% CO2 in the dark for 20 min. Then, 1.5×10^5 CellTrace-stained PBMCs were seeded in a 96-well U-bottom plate and treated with Anti-CD3/CD28 antibody-coupled magnetic beads at a ratio of 1:1 (cell count:magnetic bead count) to induce differentiation into T cells. Subsequently, various compounds at corresponding concentrations (compound Y: 200 µM; compound N: 100 µM; compound combination Y+N: 200 μM+100 μM; control group: UDCA (100 μM)) were co-incubated with the above-treated cells in the incubator at 37° C. with 5% CO2 for 72 h, followed by analysis by a flow cytometer. Specifically, the test cells were first treated with a Live/dead dye (633 nm, 1:1000 dilution) at 4° C. for 30 min to distinguish dead cells from live cells. Subsequently, the above test cells were simultaneously co-incubated with wavelength dyes anti-CD45-PerCPCy5.5, anti-CD4-AF700, and anti-CD8-FITC at room temperature for 30 min to distinguish different series of T cells (CD4-positive T cells and CD8-positive T cells). After appropriate washing, the above-stained cells were analyzed by a flow cytometer at different wavelengths. […] Proliferation of CD4-positive and CD8-positive T cells was determined by the fluorescence of CellTrace dye.

[5] = system: CD8-positive T cells; assay: Proliferation of CD8-positive T cells from Anti-CD3/CD28-stimulated PBMCs (CellTrace, flow cytometry); type: cell-based, human; conditions: FIG. 6; compound Y 200 μM, Y+N 200 μM+100 μM, 72 h; vs. DMSO control
Protocol: as §2

[6] = Example 4, FIG. 1, compound Y 100 μM, compound B 100 μM
[7] = Example 9, FIG. 9, 100 and 50 mg/kg intragastric twice daily

COc1ccc2cc3[n+](cc2c1OC)CCc1cc2c(cc1-3)OCO2 [Compound B, Berberine hydrochloride]
cell viability [1, 6]: highly significant increase in cell viability | serum alkaline phosphatase (ALP) levels ([2]; Example 9, FIG. 7, 100 and 50 mg/kg intragastric twice daily): increased serum ALP levels in a dose-dependent manner | serum ALT levels ([2]; Example 9, FIG. 8, 100 and 50 mg/kg intragastric twice daily): increased serum ALT levels in a dose-dependent manner | serum AST levels [2, 7]: increased serum AST levels in a dose-dependent manner

C[C@H](CCC(=O)O)[C@H]1CC[C@H]2[C@@H]3[C@@H](O)C[C@@H]4C[C@H](O)CC[C@]4(C)[C@H]3CC[C@]12C [U, Ursodeoxycholic acid]
serum alkaline phosphatase (ALP) levels ([2]; Example 10, FIG. 10, U 100 mg/kg intragastric twice daily): reduced serum alkaline phosphatase (ALP) levels | serum ALT levels ([2]; Example 10, FIG. 11, U 100 mg/kg, Y+N 100+50 mg/kg intragastric twice daily): significantly increased serum ALT levels | serum AST levels ([2]; Example 10, FIG. 12, U 100 mg/kg, Y+N 100+50 mg/kg intragastric twice daily): significantly increased serum AST levels | bile pigment-positive area of the liver [3]: significant reduction in the bile pigment-positive area of the liver

COc1cc2cc3[n+](cc2cc1OC)CCc1cc2c(cc1-3)OCO2 [Compound Y]
cell viability [1, 6]: highly significant increase in cell viability | cell viability (percentage relative to blank control) ([1]; Example 5, FIG. 2, compound Y 50 μM, Y+N 50 μM+50 μM (1:1), YN salt 50 μM for 24 h): 72% | proliferation of CD4-positive T cells [4]: significantly inhibited | proliferation of CD8-positive T cells [5]: significantly inhibited | serum alkaline phosphatase (ALP) levels ([2]; Example 9, FIG. 7, 50 mg/kg intragastric twice daily, day -3 to day 2): reduced serum ALP levels | serum alkaline phosphatase (ALP) levels ([2]; Example 9, FIG. 7, 100 mg/kg intragastric twice daily, day -3 to day 2): significantly reduced serum alkaline phosphatase (ALP) levels | serum ALT levels ([2]; Example 9, FIG. 8, 50 mg/kg intragastric twice daily): reduced serum ALT levels | serum ALT levels ([2]; Example 9, FIG. 8, 100 mg/kg intragastric twice daily): significantly reduced serum ALT levels | serum AST levels [2, 7]: reduced serum AST levels in a dose-dependent manner

C[C@H](CC(=O)O)[C@H]1CC[C@H]2[C@@H]3[C@@H](O)C[C@@H]4C[C@H](O)CC[C@]4(C)[C@H]3CC[C@]12C [Compound N, 24-Norursodeoxycholic acid]
cell viability [1, 6]: trend toward improved cell viability, but the trend was not significant | cell viability ([1]; Example 5, FIG. 2): trend toward improved cell viability, but the trend was not significant
